{
  "source": "PubChem BioAssay (NCI)",
  "test_in_all_cases": "DTP human tumour cell line panel, 48 h",
  "key": {"[1]": {"tested_on": "RPMI-8226 leukemia"}, "[2]": {"tested_on": "HOP-62 NSCLC"}, "[3]": {"tested_on": "SF-295 CNS"}, "[4]": {"tested_on": "NCI-H226 lung"}, "[5]": {"tested_on": "SN12C renal"}, "[6]": {"tested_on": "CCRF-CEM leukemia"}, "[7]": {"tested_on": "HCT-15 colon"}, "[8]": {"tested_on": "DU-145 prostate"}, "[9]": {"tested_on": "SF-268 CNS"}, "[10]": {"tested_on": "RXF 393 renal"}},
  "note": "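Interpolation was linear, between the two tested concentrations surrounding the appropriate level; five concentrations were tested over 48 hours in 96-well plates. GI50 = concentration required for 50% inhibition of growth. TGI marks complete inhibition of growth.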",
  "data": [
    {"smiles": "COc1cc(/C=C/c2cc(/C=C/c3ccc(O)c(OC)c3)n(C(=O)Nc3ccccc3Cl)n2)ccc1O", "values": [
      {"measurement": "GI50", "setting": "[1]", "value": 0.321, "unit": "µM"},
      {"measurement": "TGI", "setting": "[1]", "value": 1.55, "unit": "µM"},
      {"measurement": "GI50", "setting": "[2]", "value": 0.471, "unit": "µM"},
      {"measurement": "TGI", "setting": "[2]", "value": 1.78, "unit": "µM"},
      {"measurement": "GI50", "setting": "[3]", "value": 0.636, "unit": "µM"},
      {"measurement": "TGI", "setting": "[3]", "value": 3.3, "unit": "µM"},
      {"measurement": "GI50", "setting": "[4]", "value": 0.617, "unit": "µM"},
      {"measurement": "TGI", "setting": "[4]", "value": 2.74, "unit": "µM"},
      {"measurement": "GI50", "setting": "[5]", "value": 0.366, "unit": "µM"},
      {"measurement": "TGI", "setting": "[5]", "value": 5.77, "unit": "µM"},
      {"measurement": "GI50", "setting": "[6]", "value": 0.216, "unit": "µM"},
      {"measurement": "TGI", "setting": "[6]", "value": 0.844, "unit": "µM"},
      {"measurement": "GI50", "setting": "[7]", "value": 0.332, "unit": "µM"},
      {"measurement": "TGI", "setting": "[7]", "value": 4.15, "unit": "µM"},
      {"measurement": "GI50", "setting": "[8]", "value": 0.472, "unit": "µM"},
      {"measurement": "TGI", "setting": "[8]", "value": 1.64, "unit": "µM"},
      {"measurement": "GI50", "setting": "[9]", "value": 0.529, "unit": "µM"},
      {"measurement": "TGI", "setting": "[9]", "value": 3.18, "unit": "µM"},
      {"measurement": "GI50", "setting": "[10]", "value": 0.309, "unit": "µM"},
      {"measurement": "TGI", "setting": "[10]", "value": 0.845, "unit": "µM"}
    ]},
    {"smiles": "CC1(C)N=C(N)N=C(N)N1c1ccc(Cl)cc1", "values": [
      {"measurement": "GI50", "setting": "[1]", "value": "> 100", "unit": "µM"},
      {"measurement": "TGI", "setting": "[1]", "value": "> 100", "unit": "µM"},
      {"measurement": "GI50", "setting": "[2]", "value": 3.54, "unit": "µM"},
      {"measurement": "TGI", "setting": "[2]", "value": "> 100", "unit": "µM"},
      {"measurement": "GI50", "setting": "[3]", "value": 2.9, "unit": "µM"},
      {"measurement": "TGI", "setting": "[3]", "value": 9.94, "unit": "µM"},
      {"measurement": "GI50", "setting": "[4]", "value": "> 100", "unit": "µM"},
      {"measurement": "TGI", "setting": "[4]", "value": "> 100", "unit": "µM"},
      {"measurement": "GI50", "setting": "[5]", "value": 7.25, "unit": "µM"},
      {"measurement": "TGI", "setting": "[5]", "value": "> 100", "unit": "µM"},
      {"measurement": "GI50", "setting": "[6]", "value": "> 100", "unit": "µM"},
      {"measurement": "TGI", "setting": "[6]", "value": "> 100", "unit": "µM"},
      {"measurement": "GI50", "setting": "[7]", "value": 18.7, "unit": "µM"},
      {"measurement": "TGI", "setting": "[7]", "value": "> 100", "unit": "µM"},
      {"measurement": "GI50", "setting": "[8]", "value": 5.35, "unit": "µM"},
      {"measurement": "TGI", "setting": "[8]", "value": "> 100", "unit": "µM"},
      {"measurement": "GI50", "setting": "[9]", "value": 0.688, "unit": "µM"},
      {"measurement": "TGI", "setting": "[9]", "value": "> 100", "unit": "µM"},
      {"measurement": "GI50", "setting": "[10]", "value": 8.09, "unit": "µM"},
      {"measurement": "TGI", "setting": "[10]", "value": "> 100", "unit": "µM"}
    ]},
    {"smiles": "Cc1ccc(C=C2C(Cl)=C(Cl)C(Cl)=C2Cl)cc1", "values": [
      {"measurement": "GI50", "setting": "[1]", "value": 0.224, "unit": "µM"},
      {"measurement": "TGI", "setting": "[1]", "value": 0.653, "unit": "µM"},
      {"measurement": "GI50", "setting": "[2]", "value": 2.13, "unit": "µM"},
      {"measurement": "TGI", "setting": "[2]", "value": 4.44, "unit": "µM"},
      {"measurement": "GI50", "setting": "[3]", "value": 1.55, "unit": "µM"},
      {"measurement": "TGI", "setting": "[3]", "value": 3.93, "unit": "µM"},
      {"measurement": "GI50", "setting": "[4]", "value": 1.49, "unit": "µM"},
      {"measurement": "TGI", "setting": "[4]", "value": 3.22, "unit": "µM"},
      {"measurement": "GI50", "setting": "[5]", "value": 0.832, "unit": "µM"},
      {"measurement": "TGI", "setting": "[5]", "value": 3.02, "unit": "µM"},
      {"measurement": "GI50", "setting": "[6]", "value": 0.167, "unit": "µM"},
      {"measurement": "TGI", "setting": "[6]", "value": 0.49, "unit": "µM"},
      {"measurement": "GI50", "setting": "[7]", "value": 1.33, "unit": "µM"},
      {"measurement": "TGI", "setting": "[7]", "value": 4.88, "unit": "µM"},
      {"measurement": "GI50", "setting": "[8]", "value": 0.926, "unit": "µM"},
      {"measurement": "TGI", "setting": "[8]", "value": 3.13, "unit": "µM"},
      {"measurement": "GI50", "setting": "[9]", "value": 0.617, "unit": "µM"},
      {"measurement": "TGI", "setting": "[9]", "value": 2.28, "unit": "µM"},
      {"measurement": "GI50", "setting": "[10]", "value": 0.308, "unit": "µM"},
      {"measurement": "TGI", "setting": "[10]", "value": 0.906, "unit": "µM"}
    ]},
    {"smiles": "CN(C)CCCSc1ccccc1NC1=C(Cl)C(=O)C(Nc2ccccc2SCCCN(C)C)=C(Cl)C1=O", "values": [
      {"measurement": "GI50", "setting": "[1]", "value": 2.35, "unit": "µM"},
      {"measurement": "TGI", "setting": "[1]", "value": 5.62, "unit": "µM"},
      {"measurement": "GI50", "setting": "[2]", "value": 3.59, "unit": "µM"},
      {"measurement": "TGI", "setting": "[2]", "value": 10.6, "unit": "µM"},
      {"measurement": "GI50", "setting": "[3]", "value": 1.96, "unit": "µM"},
      {"measurement": "TGI", "setting": "[3]", "value": 3.82, "unit": "µM"},
      {"measurement": "GI50", "setting": "[4]", "value": 2.21, "unit": "µM"},
      {"measurement": "TGI", "setting": "[4]", "value": 4.32, "unit": "µM"},
      {"measurement": "GI50", "setting": "[5]", "value": 1.72, "unit": "µM"},
      {"measurement": "TGI", "setting": "[5]", "value": 3.18, "unit": "µM"},
      {"measurement": "GI50", "setting": "[6]", "value": 0.476, "unit": "µM"},
      {"measurement": "TGI", "setting": "[6]", "value": 4.15, "unit": "µM"},
      {"measurement": "GI50", "setting": "[7]", "value": 1.69, "unit": "µM"},
      {"measurement": "TGI", "setting": "[7]", "value": 3.32, "unit": "µM"},
      {"measurement": "GI50", "setting": "[8]", "value": 1.76, "unit": "µM"},
      {"measurement": "TGI", "setting": "[8]", "value": 3.23, "unit": "µM"},
      {"measurement": "GI50", "setting": "[9]", "value": 1.93, "unit": "µM"},
      {"measurement": "TGI", "setting": "[9]", "value": 4.48, "unit": "µM"},
      {"measurement": "GI50", "setting": "[10]", "value": 1.92, "unit": "µM"},
      {"measurement": "TGI", "setting": "[10]", "value": 3.35, "unit": "µM"}
    ]},
    {"smiles": "Cc1ccc2cccc(OC(=O)Nc3cccc(C(F)(F)F)c3)c2n1", "values": [
      {"measurement": "GI50", "setting": "[1]", "value": 2.52, "unit": "µM"},
      {"measurement": "TGI", "setting": "[1]", "value": 7.21, "unit": "µM"},
      {"measurement": "GI50", "setting": "[2]", "value": 5.83, "unit": "µM"},
      {"measurement": "TGI", "setting": "[2]", "value": 18.6, "unit": "µM"},
      {"measurement": "GI50", "setting": "[3]", "value": 2.5, "unit": "µM"},
      {"measurement": "TGI", "setting": "[3]", "value": 7.25, "unit": "µM"},
      {"measurement": "GI50", "setting": "[4]", "value": 3.61, "unit": "µM"},
      {"measurement": "TGI", "setting": "[4]", "value": 14.1, "unit": "µM"},
      {"measurement": "GI50", "setting": "[5]", "value": 2.66, "unit": "µM"},
      {"measurement": "TGI", "setting": "[5]", "value": 8.18, "unit": "µM"},
      {"measurement": "GI50", "setting": "[6]", "value": 2.86, "unit": "µM"},
      {"measurement": "TGI", "setting": "[6]", "value": 19.2, "unit": "µM"},
      {"measurement": "GI50", "setting": "[7]", "value": 3.14, "unit": "µM"},
      {"measurement": "TGI", "setting": "[7]", "value": 11.3, "unit": "µM"},
      {"measurement": "GI50", "setting": "[8]", "value": 3.95, "unit": "µM"},
      {"measurement": "TGI", "setting": "[8]", "value": 82.4, "unit": "µM"},
      {"measurement": "GI50", "setting": "[9]", "value": 4.26, "unit": "µM"},
      {"measurement": "TGI", "setting": "[9]", "value": 18.3, "unit": "µM"},
      {"measurement": "GI50", "setting": "[10]", "value": 5.3, "unit": "µM"},
      {"measurement": "TGI", "setting": "[10]", "value": 21.9, "unit": "µM"}
    ]},
    {"smiles": "Oc1ccc2c3c1OC1c4[nH]ncc4C[C@H]4[C@@H](C2)N(CC2CC2)CC[C@]314", "note": "(stereo not given in full)", "values": [
      {"measurement": "TGI", "setting": "[1]", "value": "> 100", "unit": "µM"},
      {"measurement": "TGI", "setting": "[2]", "value": "> 100", "unit": "µM"},
      {"measurement": "TGI", "setting": "[3]", "value": "> 100", "unit": "µM"},
      {"measurement": "TGI", "setting": "[4]", "value": "> 100", "unit": "µM"},
      {"measurement": "TGI", "setting": "[5]", "value": "> 100", "unit": "µM"},
      {"measurement": "TGI", "setting": "[6]", "value": "> 100", "unit": "µM"},
      {"measurement": "TGI", "setting": "[7]", "value": "> 100", "unit": "µM"},
      {"measurement": "TGI", "setting": "[8]", "value": "> 100", "unit": "µM"},
      {"measurement": "TGI", "setting": "[9]", "value": "> 100", "unit": "µM"},
      {"measurement": "TGI", "setting": "[10]", "value": "> 100", "unit": "µM"}
    ]}
  ]
}
